The source of these data is patent EP0324328B1, “Use of the N-n-butyl derivative of desoxynojirimycin in the manufacture of a medicament inhibiting HIV-Virus” (priority 1987, dated 1989).

Like-named read-outs stand apart in the source and are kept apart here.

One data set deals with T-45 cells. In kind it is cell-based, human. As to conditions: for Estimated Cell Growth Virus-uninfected Day 7: no-drug control 1.2x10^6; for cytotoxicity: non-infected cells, over the concentration range used (Fig. 3, Table 1), result in words. How it is done:
FIG. 1 is a schematic outline of the test procedure used to assess the cytotoxic effect of test compounds on T-cells either infected or non-infected with HIV and in parallel the HIV inhibitory activity of the test compounds. TCID is the tissue culture infectious dose. Cells were cultured in RPMI-1640 medium with 10% fetal calf serum containing 100 units/ml penicillin G and 100 µg/ml streptomycin.
(§1) The assay was run in 96 well plastic microtiter plates in which 0.2 ml of culture medium containing 10^4 T-cells are seeded into each well. RPMI-1640 supplemented with 10% fetal calf serum was used as the culture medium. In each assay, 6 wells are used. Three (1-3) are infected with 10^4 TCID/well of HIV-1 or HIV-2 and to the other three (4-6) culture medium alone is added. Medium is changed at the same intervals for each test compound. The detailed assay procedure is illustrated in Figures 1 and 2.
(§2) The efficacy of the test compounds used in this example was assessed as follows: 0.2 ml of culture medium containing 10^4 T-45 cells were transferred into each well of a 96-well flat-bottomed tissue-culture plastic plate and the cells were allowed to settle at 37°C (see Figure 1). After 4 hours the media were aspirated and replaced with media which contained the test compound. Following overnight incubation the media was aspirated and 10^4 TCID of virus (HIV-1 or HIV-2) was added to each well. Incubation was continued at 37°C in 5% CO2 for 1 hour. Thereafter, growth media containing the various compounds were added and incubation at 37°C was continued. On the fourth day the cell suspensions from each well were split and seeded into two new wells and 0.2 ml of fresh media with compounds was added. This was repeated on the seventh day. Cells were examined by microscopy during days 1 to 10 for the presence of syncytia, growth rate and the appearance of the cytopathic effect (CPE) (giant cells, pycnotic nuclei, loss of refractility). CPE (100%) was defined as no round, refractile, uniform cells remaining; only giant, ballooned pyknotic cells were present. The viability of HIV infected cultures was determined by a rough count/estimate of cells which underwent CPE in relation to round refractile uniform (normal) cells in a given culture.
Quantitative data on the effect of the various compounds on the non-infected cells (cytotoxicity) was obtained by comparison of their growth rate to control cells not exposed to drugs (Table 1). […] In addition, the MOLT-4 cell line was also used.

Data set [1] concerns B16-F10 murine melanoma cells. As to the kind of experiment: Incorporation of radiolabeled galactose, mannose, glucose and thymidine into cells. In kind it is cell-based. As to conditions: result in words; for galactose incorporation into the cells: radiolabeled galactose; for glucose utilization/inhibition: radiolabeled glucose; for mannose utilization: radiolabeled mannose.
Another data set has as its system HIV-1. The experiment in a line: Virus titer (TCID) of HIV-1 infected T-cell cultures grown with test compound. In kind it is cell-based. The conditions noted are these: control 10^6; for HIV-1 (TCID): Table 2, 0.10 mg/ml, 10^4 T-45 or MOLT-4 cells (identical results), 10^4 TCID inoculum, after day 10; for VIRUS TITER HIV-1: Table 3, Example 2, 0.1 mg/ml, T-45 and MOLT-4 cells, 10^4 TCID on 10^4 cells. How it is done: Cell free suspensions of the HIV were prepared from infected cultures. The concentration of infectious particles was estimated on end-point titration assay using serial ten-fold dilutions. The approximate number of infectious particles in each preparation was determined by the highest dilution which contains infectious HIV as determined by synctial formation, cytopathicity [Leonard et al., Proc. Natl. Acad. Sci. USA 85, 3570-3574 (1988); Barre-Sinoussi et al., Science 220, 868-870 (1983)] and HIV antigen [Karpas et al., Lancet 1, 695-697 (1985)] synthesis after 10 days of culture with 10^4 T-cells. This represents the concentration of infectious particles, herein defined as the tissue culture infectious dose (TCID).
as §1
as §2, with “culture. Cells in wells which were incubated with compounds which appeared to inhibit or reduce HIV replication and in which there was marked cell proliferation were either transferred to larger wells (of a 24-well plate) or divided in order to maintain an approximate constant cell density to promote continuous cell division.” for “culture.”
That is, HIV-1 was first passaged in T-45 cells; likewise, HIV-1 was first passaged in MOLT-4 cells. The same passaging was done with HIV-2. The test compounds were used at a concentration of 0.1 mg/ml. 10^4 TCID of HIV-1 and separately of HIV-2 were used to infect 10^4 cells. Upon completion of the test, the virus titers were as follows: TABLE 3

Take `CCCCN1C[C@H](O)[C@@H](O)[C@H](O)[C@H]1CO` [BuDNJ, N-n-butyl-deoxynojirimycin]: the “Estimated Cell Growth Virus-uninfected Day 7” value in the data set on T-45 cells (Dosage 0.01 mg/ml) was 1.2x10^6. Also, the “Estimated Cell Growth Virus-uninfected Day 7” value with T-45 cells (Dosage 0.05 mg/ml) is 1.2x10^6. Besides, in the data set on T-45 cells (Dosage 0.10 mg/ml), the “Estimated Cell Growth Virus-uninfected Day 7” value is 1.4x10^6. Moreover, in the data set on T-45 cells, the cytotoxicity entry was “showed no cytotoxicity over the concentration range used”. In data set [1], the “galactose incorporation into the cells” value is reported as “substantially inhibited galactose incorporation into the cells at 1.0 mM or less”, the glucose utilization/inhibition entry was “little or no effect”, the mannose utilization entry is “inhibited mannose utilization” and the “^3H-Thymidine uptake into the cells” value is “not affected by N-butyl-DNJ up to 2.0 mM”. In the data set on HIV-1, the “HIV-1 (TCID)” value is less than 10 TCID and the “VIRUS TITER HIV-1” value is listed as 10.

As to `CN1C[C@H](O)[C@@H](O)[C@H](O)[C@H]1CO` [MeDNJ, N-methyl-deoxynojirimycin], the “Estimated Cell Growth Virus-uninfected Day 7” value in the data set with T-45 cells (Dosage 0.01 mg/ml) is 1.2x10^6. The “Estimated Cell Growth Virus-uninfected Day 7” value in the data set with T-45 cells (Dosage 0.05 mg/ml) is 1.2x10^6. In the data set on T-45 cells (Dosage 0.10 mg/ml), the “Estimated Cell Growth Virus-uninfected Day 7” value is recorded as 1.0x10^6. In addition, in the data set on T-45 cells (Dosage 0.25 mg/ml), the “Estimated Cell Growth Virus-uninfected Day 7” value is reported as 1.0x10^6. Moreover, in the data set with T-45 cells (Dosage 0.50 mg/ml), the “Estimated Cell Growth Virus-uninfected Day 7” value is reported as 5.0x10^6. In addition, the cytotoxicity result in the data set on T-45 cells is reported as “cytotoxic”. In addition, in data set [1], the “galactose incorporation into the cells” value is given as “only slightly inhibitory”; the glucose utilization/inhibition entry is reported as “inverted dose-response curve”; the mannose utilization entry is listed as “either stimulated incorporation or, conservatively, had no effect”; the “^3H-Thymidine uptake into the cells” value is “inhibited incorporation at 1.0 mM”. For the same compound, in the data set on HIV-1, the “HIV-1 (TCID)” value is given as 10^2 TCID and the “VIRUS TITER HIV-1” value was 10^2.
